Tested on: COS-1 cells
Assay: In vitro mammalian cytotoxicity assay (Resazurin)

Row | SMILES | In Vitro Cytotoxicity
1 | COc1ccc(CN2CCOCC2)cc1-c1ccc(O)c2c1C[C@@]1(N)C[C@@]3(N)[C@H](N(C)C)C(O)=C(C(N)=O)C(=O)[C@@]3(C#N)C(O)=C1C2=O [HU] | * (toxicities greater than >25 μg/ml are represented by *)
2 | CN(C)c1cc(CNC(N)=O)c(O)c2c1C[C@@]1(N)C[C@@]3(N)[C@H](N(C)C)C(O)=C(C(N)=O)C(=O)[C@@]3(C#N)C(O)=C1C2=O [TD] | * (toxicities greater than >25 μg/ml are represented by *)
3 | COC(=O)C#Cc1cc(N(C)C)c2c(c1O)C(=O)C1=C(O)[C@]3(C#N)C(=O)C(C(N)=O)=C(O)[C@@H](N(C)C)[C@]3(N)C[C@]1(N)C2 [JI] | * (toxicities greater than >25 μg/ml are represented by *)
4 | CN(C)CC#Cc1cc(C(C)(C)C)c(O)c2c1C[C@@]1(N)C[C@@]3(N)[C@H](N(C)C)C(O)=C(C(N)=O)C(=O)[C@@]3(C#N)C(O)=C1C2=O [OH] | ** (toxicities less than 25 μg/mL are represented by **)
5 | CN(C)[C@@H]1C(O)=C(C(N)=O)C(=O)[C@@]2(C#N)C(O)=C3C(=O)c4c(O)ccc(-c5ccc(NC(=O)C6CC6)cc5)c4C[C@@]3(N)C[C@@]12N [PB] | * (toxicities greater than >25 μg/ml are represented by *)
6 | COc1cc(C/C=C\c2ccc(O)c3c2C[C@@]2(N)C[C@@]4(N)[C@H](N(C)C)C(O)=C(C(N)=O)C(=O)[C@@]4(C#N)C(O)=C2C3=O)ccc1O [HW] | ** (toxicities less than 25 μg/mL are represented by **)
7 | COc1ccc(CN2CCCC2)cc1-c1ccc2c(c1O)C(=O)C1=C(O)[C@]3(C#N)C(=O)C(C(N)=O)=C(O)[C@@H](N(C)C)[C@]3(N)[C@@H](O)[C@]1(N)[C@H]2N [PR] | * (toxicities greater than >25 μg/ml are represented by *)
8 | COc1ccc(C=O)cc1-c1ccc(O)c2c1C[C@@]1(N)C[C@@]3(N)[C@H](N(C)C)C(O)=C(C(N)=O)C(=O)[C@@]3(C#N)C(O)=C1C2=O [OW] | * (toxicities greater than >25 μg/ml are represented by *)
9 | CN(C)[C@@H]1C(O)=C(C(N)=O)C(=O)[C@@]2(C#N)C(O)=C3C(=O)c4c(O)ccc(-c5ccc(Cl)cc5)c4C[C@@]3(N)C[C@@]12N [DM] | ** (toxicities less than 25 μg/mL are represented by **)
10 | CN(C)[C@@H]1C(O)=C(C(N)=O)C(=O)[C@@]2(C#N)C(O)=C3C(=O)c4c(ccc(N5CCCCC5)c4O)C[C@@]3(N)C[C@@]12N [SO] | ** (toxicities less than 25 μg/mL are represented by **)
11 | CNNC(=O)c1cccc(-c2ccc(O)c3c2C[C@@]2(N)C[C@@]4(N)C(N(C)C)C(O)=C(C(N)=O)C(=O)[C@@]4(C#N)C(O)=C2C3=O)c1 (stereo partly drawn) [QY] | * (toxicities greater than >25 μg/ml are represented by *)
12 | CN(C)[C@@H]1C(O)=C(C(N)=O)C(=O)[C@@]2(C#N)C(O)=C3C(=O)c4c(O)ccc(-c5ccccc5Cl)c4C[C@@]3(N)C[C@@]12N [GM] | ** (toxicities less than 25 μg/mL are represented by **)
13 | CN(C)c1cc(/C=C/c2ccc(F)cc2)c(O)c2c1C[C@@]1(N)C[C@@]3(N)[C@H](N(C)C)C(O)=C(C(N)=O)C(=O)[C@@]3(C#N)C(O)=C1C2=O [CD] | ** (toxicities less than 25 μg/mL are represented by **)
14 | CC(C)c1ccc(CNc2cc(N(C)C)c3c(c2O)C(=O)C2=C(O)[C@]4(C#N)C(=O)C(C(N)=O)=C(O)[C@@H](N(C)C)[C@]4(N)C[C@]2(N)C3)cc1 [TV] | ** (toxicities less than 25 μg/mL are represented by **)
15 | CN(C)[C@@H]1C(O)=C(C(N)=O)C(=O)[C@@]2(C#N)C(O)=C3C(=O)c4c(O)ccc(-c5ccc(C(F)(F)F)cc5)c4C[C@@]3(N)C[C@@]12N [FQ] | ** (toxicities less than 25 μg/mL are represented by **)
16 | CC(=O)c1cc(F)c(O)c2c1C[C@@]1(N)C[C@@]3(N)[C@H](N(C)C)C(O)=C(C(N)=O)C(=O)[C@@]3(C#N)C(O)=C1C2=O [SB] | * (toxicities greater than >25 μg/ml are represented by *)
17 | CC(=O)Nc1ccc(C#Cc2ccc(O)c3c2C[C@@]2(N)C[C@@]4(N)[C@H](N(C)C)C(O)=C(C(N)=O)C(=O)[C@@]4(C#N)C(O)=C2C3=O)cc1 [IU] | * (toxicities greater than >25 μg/ml are represented by *)
18 | Cc1ccc(/C=C2\c3cccc(O)c3C(=O)C3=C(O)[C@]4(C#N)C(=O)C(C(N)=O)=C(O)[C@@H](N(C)C)[C@]4(O)[C@@H](O)[C@@]32N)cc1 [CY] | ** (toxicities less than 25 μg/mL are represented by **)
19 | CCOC(=O)c1coc(NCc2cc(N(C)C)c3c(c2O)C(=O)C2=C(O)[C@]4(C#N)C(=O)C(C(N)=O)=C(O)[C@@H](N(C)C)[C@]4(N)C[C@]2(N)C3)n1 [TF] | * (toxicities greater than >25 μg/ml are represented by *)
20 | COC(=O)C1C(=O)[C@@]2(O)C(O)=C3C(=O)c4c(O)c(N(C)Cc5cc[nH]n5)cc(N(C)C)c4C[C@@]3(N)C[C@@]2(N)[C@H](N(C)C)C1OC (stereo partly drawn) [VG] | ** (toxicities less than 25 μg/mL are represented by **)
21 | CN(C)c1cc(CNCCc2ccccc2)c(O)c2c1C[C@@]1(N)C[C@@]3(N)[C@H](N(C)C)C(O)=C(C(N)=O)C(=O)[C@@]3(C#N)C(O)=C1C2=O [LX] | * (toxicities greater than >25 μg/ml are represented by *)

Row | SMILES | In Vitro Cytotoxicity
22 | CN(C)[C@@H]1C(O)=C(C(N)=O)C(=O)[C@@]2(C#N)C(O)=C3C(=O)c4c(O)ccc(C#Cc5ccccc5)c4C[C@@]3(N)C[C@@]12N [FB] | ** (toxicities less than 25 μg/mL are represented by **)
23 | CN(C)[C@@H]1C(O)=C(C(N)=O)C(=O)[C@@]2(C#N)C(O)=C3C(=O)c4c(ccc(NC5CCC(Cc6ccccc6)CC5)c4O)[C@H](N)[C@@]3(N)[C@H](O)[C@@]12N (stereo partly drawn) [RS] | * (toxicities greater than >25 μg/ml are represented by *)
24 | C#CCOC(=O)Nc1cc(N(C)C)c2c(c1O)C(=O)C1=C(O)[C@]3(C#N)C(=O)C(C(N)=O)=C(O)[C@@H](N(C)C)[C@]3(N)C[C@]1(N)C2 [SL] | ** (toxicities less than 25 μg/mL are represented by **)
25 | CCc1cc(F)c(O)c2c1C[C@@]1(N)C[C@@]3(N)[C@H](N(C)C)C(O)=C(C(N)=O)C(=O)[C@@]3(C#N)C(O)=C1C2=O [IR] | ** (toxicities less than 25 μg/mL are represented by **)
26 | CN(C)[C@@H]1C(O)=C(C(N)=O)C(=O)[C@@]2(C#N)C(O)=C3C(=O)c4c(O)c(NC(=O)OCC(C)(C)C)cc(CN)c4C[C@@]3(N)C[C@@]12N [QM] | * (toxicities greater than >25 μg/ml are represented by *)
27 | CN(C)[C@@H]1C(O)=C(C(N)=O)C(=O)[C@@]2(C#N)C(O)=C3C(=O)c4c(O)ccc(C#CCc5ccccc5)c4C[C@@]3(N)C[C@@]12N [GZ] | ** (toxicities less than 25 μg/mL are represented by **)
28 | CN(C)[C@@H]1C(O)=C(C(N)=O)C(=O)[C@@]2(OC(=O)CC(C)(C)C)C(O)=C3C(=O)c4c(ccc(NC(=O)NC(C)(C)C)c4O)[C@H](N)[C@@]3(N)[C@H](O)[C@@]12N [BG] | ** (toxicities less than 25 μg/mL are represented by **)
29 | C=CC(O)O[C@H]1[C@@]2(N)C(=C(O)[C@]3(C#N)C(=O)C(C(N)=O)=C(O)[C@@H](N(C)C)[C@]13N)C(=O)c1c(O)cccc1[C@@H]2N (stereo partly drawn) [BO] | ** (toxicities less than 25 μg/mL are represented by **)
30 | CN(C)c1cc(CNCc2cccn2C)c(O)c2c1C[C@@]1(N)C[C@@]3(N)[C@H](N(C)C)C(O)=C(C(N)=O)C(=O)[C@@]3(C#N)C(O)=C1C2=O [SK] | * (toxicities greater than >25 μg/ml are represented by *)
31 | CN(C)[C@@H]1C(O)=C(C(N)=O)C(=O)[C@@]2(C#N)C(O)=C3C(=O)c4c(ccc(Nc5nc(-c6cccc([N+](=O)O)c6)cs5)c4O)C[C@@]3(N)C[C@@]12N [ED] | ** (toxicities less than 25 μg/mL are represented by **)
32 | CN(C)c1cc(C#Cc2ccc(N)cc2)c(O)c2c1C[C@@]1(N)C[C@@]3(N)[C@H](N(C)C)C(O)=C(C(N)=O)C(=O)[C@@]3(C#N)C(O)=C1C2=O [JG] | * (toxicities greater than >25 μg/ml are represented by *)
33 | CN(C)[C@@H]1C(O)=C(C(N)=O)C(=O)[C@@]2(C#N)C(O)=C3C(=O)c4c(O)c(C(C)(C)C)cc(I)c4C[C@@]3(N)C[C@@]12N [NR] | ** (toxicities less than 25 μg/mL are represented by **)
34 | Cc1ccc(C#Cc2cc(N(C)C)c3c(c2O)C(=O)C2=C(O)[C@]4(C#N)C(=O)C(C(N)=O)=C(O)[C@@H](N(C)C)[C@]4(N)C[C@]2(N)C3)cc1 [FL] | ** (toxicities less than 25 μg/mL are represented by **)
35 | CC#Cc1cc(N(C)C)c2c(c1O)C(=O)C1=C(O)[C@]3(C#N)C(=O)C(C(N)=O)=C(O)[C@@H](N(C)C)[C@]3(N)C[C@]1(N)C2 [FH] | * (toxicities greater than >25 μg/ml are represented by *)
36 | CCCCCN(Cc1cccc(-c2ccc(O)c3c2C[C@@]2(N)C[C@@]4(N)[C@H](N(C)C)C(O)=C(C(N)=O)C(=O)[C@@]4(C#N)C(O)=C2C3=O)c1)P(=O)(OCC)OCC [KO] | * (toxicities greater than >25 μg/ml are represented by *)
37 | CN(C)c1cc(NC(=O)Nc2cccc3ccccc23)c(O)c2c1C[C@@]1(N)C[C@@]3(N)[C@H](N(C)C)C(O)=C(C(N)=O)C(=O)[C@@]3(C#N)C(O)=C1C2=O [CF] | ** (toxicities less than 25 μg/mL are represented by **)
38 | CN(C)[C@@H]1C(O)=C(C(N)=O)C(=O)[C@@]2(C#N)C(O)=C3C(=O)c4c(O)ccc(-c5ccc(CNCc6cccc(F)c6)cc5)c4C[C@@]3(N)C[C@@]12N [OG] | ** (toxicities less than 25 μg/mL are represented by **)
39 | CC(C)CNCc1ccc2c(c1O)C(=O)C1=C(O)[C@]3(C#N)C(=O)C(C(N)=O)=C(O)[C@@H](N(C)C)[C@]3(N)[C@@H](O)[C@]1(N)[C@H]2N [RQ] | * (toxicities greater than >25 μg/ml are represented by *)
40 | CN(C)[C@@H]1C(O)=C(C(N)=O)C(=O)[C@@]2(C#N)C(O)=C3C(=O)c4c(O)c(CN)cc(-c5cccc([N+](=O)O)c5)c4C[C@@]3(N)C[C@@]12N [KB] | ** (toxicities less than 25 μg/mL are represented by **)
41 | CN(C)c1cc(CN(Cc2ccn[nH]2)Cc2ccn[nH]2)c(O)c2c1C[C@@]1(N)C[C@@]3(N)[C@H](N(C)C)C(O)=C(C(N)=O)C(=O)[C@@]3(C#N)C(O)=C1C2=O [TA] | * (toxicities greater than >25 μg/ml are represented by *)
42 | CN(C)c1cc(-c2ccc(Cl)cc2)c(O)c2c1C[C@@]1(N)C[C@@]3(N)[C@H](N(C)C)C(O)=C(C(N)=O)C(=O)[C@@]3(C#N)C(O)=C1C2=O [EQ] | ** (toxicities less than 25 μg/mL are represented by **)
